This assay concerns the target IDO1 (Homo sapiens, UniProt P14902). The assay can be described thus: IDO1 Cellular Assay in HeLa Cells Stimulated with IFNγ. In kind it is cell-based. To be noted: read-out: HeLa Cell Potency, IC50.
IDO1, sequence (P14902 whole entry): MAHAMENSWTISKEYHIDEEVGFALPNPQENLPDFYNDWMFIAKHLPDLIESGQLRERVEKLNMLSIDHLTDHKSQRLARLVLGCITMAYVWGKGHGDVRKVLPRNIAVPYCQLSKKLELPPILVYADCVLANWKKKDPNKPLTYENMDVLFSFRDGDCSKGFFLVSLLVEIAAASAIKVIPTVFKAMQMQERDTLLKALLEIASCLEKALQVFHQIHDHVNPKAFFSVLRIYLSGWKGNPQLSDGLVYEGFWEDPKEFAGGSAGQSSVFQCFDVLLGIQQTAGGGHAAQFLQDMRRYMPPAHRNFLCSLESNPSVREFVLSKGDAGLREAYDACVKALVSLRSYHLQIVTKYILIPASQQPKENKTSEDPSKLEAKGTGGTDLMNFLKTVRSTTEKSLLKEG
For orientation: IC50 means the concentration at which inhibition is half-maximal. On to `CC(=O)NC1CCN(C(=O)c2nn(CC(=O)N3CCN(c4cccc(C)c4C)CC34CC4)c3c2[C@@H]2C[C@@H]2C3)CC1` [Example 356, N-(1-((3bR,4aR)-1-(2-(7-(2,3-dimethylphenyl)-4,7-diazaspiro[2.5]octan-4-yl)-2-oxoethyl)-3b,4,4a,5-tetrahydro-1H-cyclopropa[3,4]cyclopenta[1,2-c]pyrazole-3-carbonyl)piperidin-4-yl)acetamide], for which the IC50 was determined as 0.73 nM.

Regarding `Cc1cccc(N2CCN(C(=O)Cn3nc(C(=O)N4CCC(O)(CF)CC4)c4c3C[C@H]3C[C@@H]43)C3(CC3)C2)c1C` [Example 358], the IC50 was 1.59 nM.

In the case of `Cc1cccc(N2CCN(C(=O)Cn3nc(C(=O)N4CC[C@H](O)[C@@H](F)C4)c4c3C[C@H]3C[C@@H]43)C3(CC3)C2)c1C` [Example 359], the IC50 amounted to 1.93 nM.

As for `Cc1cccc(N2CCN(C(=O)Cn3nc(C(=O)N4CCO[C@H](CO)C4)c4c3C[C@H]3C[C@@H]43)C3(CC3)C2)c1C` [Example 363, 1-(7-(2,3-dimethylphenyl)-4,7-diazaspiro[2.5]octan-4-yl)-2-((3bR,4aR)-3-((S)-2-(hydroxymethyl)morpholine-4-carbonyl)-3b,4,4a,5-tetrahydro-1H-cyclopropa[3,4]cyclopenta[1,2-c]pyrazol-1-yl)ethanone], the IC50 came out at 2.52 nM.

For `Cc1cccc(N2CCN(C(=O)Cn3nc(C(=O)N4CC[C@H](O)[C@H](F)C4)c4c3C[C@H]3C[C@@H]43)C3(CC3)C2)c1C` [Example 364, 1-(7-(2,3-dimethylphenyl)-4,7-diazaspiro[2.5]octan-4-yl)-2-((3bR,4aR)-3-((3R,4S)-3-fluoro-4-hydroxypiperidine-1-carbonyl)-3b,4,4a,5-tetrahydro-1H-cyclopropa[3,4]cyclopenta[1,2-c]pyrazol-1-yl)ethanone], the IC50 is 1.47 nM.

`Cc1cccc(N2CCN(C(=O)Cn3nc(C(=O)N4CC[C@@H](O)[C@@H](F)C4)c4c3C[C@H]3C[C@@H]43)C3(CC3)C2)c1C` [Example 365, 1-(7-(2,3-dimethylphenyl)-4,7-diazapspiro[2.5]octan-4-yl)-2-((3bR,4aR)-3-((3S,4R)-3-fluoro-4-hydroxypiperidine-1-carbonyl)-3b,4,4a,5-tetrahydro-1H-cyclopropa[3,4]cyclopenta[1,2-c]pyrazol-1-yl)ethanone]: the IC50 is 1.19 nM.

Take `CC(=O)NC1CCN(C(=O)c2nn(CC(=O)N3CCN(c4cccc(Cl)c4C)CC3)c3c2CC(F)CC3)CC1` (stereo not shown) [Example 367, N-(1-(1-(2-(4-(3-chloro-2-methylphenyl)piperazin-1-yl)-2-oxoethyl)-5-fluoro-4,5,6,7-tetrahydro-1H-indazole-3-carbonyl)piperidin-4-yl)acetamide]: the IC50 amounted to 2.89 nM.

As to `Cc1c(Cl)cccc1N1CCN(C(=O)Cn2nc(C(=O)N3CC[C@H](O)[C@H](F)C3)c3c2CCC(F)C3)CC1` (stereo partly drawn) [Example 369, 1-(4-(3-chloro-2-methylphenyl)piperazin-1-yl)-2-(5-fluoro-3-((3R,4S)-3-fluoro-4-hydroxypiperidine-1-carbonyl)-4,5,6,7-tetrahydro-1H-indazol-1-yl)ethan-1-one], the 50% inhibitory concentration (IC50) worked out at 6.62 nM.

As to `Cc1c(Cl)cccc1N1CCN(C(=O)Cn2nc(C(=O)N3CC[C@@H](O)[C@@H](F)C3)c3c2CCC(F)C3)CC1` (stereo partly drawn) [Example 370, 1-(4-(3-chloro-2-methylphenyl)piperazin-1-yl)-2-(5-fluoro-3-((3S,4R)-3-fluoro-4-hydroxypiperidine-1-carbonyl)-4,5,6,7-tetrahydro-1H-indazol-1-yl)ethan-1-one], the IC50 worked out at 9.52 nM.

With `Cc1c(Cl)cccc1N1CCN(C(=O)Cn2nc(C(=O)N3CCN(C(=O)CO)CC3)c3c2CCC(F)C3)CC1` (stereo not shown) [Example 371, 1-(4-(3-chloro-2-methylphenyl)piperazin-1-yl)-2-(5-fluoro-3-(4-(2-hydroxyacetyl)piperazine-1-carbonyl)-4,5,6,7-tetrahydro-1H-indazol-1-yl)ethan-1-one], the IC50 came out at 15.7 nM.

For the molecule `Cc1c(Cl)cccc1N1CCN(C(=O)Cn2nc(C(=O)N3CCC(O)CC3)c3c2CCC(F)C3)CC1` (stereo not shown) [Example 372, 1-(4-(3-chloro-2-methylphenyl)piperazin-1-yl)-2-(5-fluoro-3-(4-hydroxypiperidine-1-carbonyl)-4,5,6,7-tetrahydro-1H-indazol-1-yl)ethan-1-one], the IC50 was found to be 2.32 nM.

`Cc1c(Cl)cccc1N1CCN(C(=O)Cn2nc(C(=O)N3CC[C@H](O)[C@H](F)C3)c3c2CCC(F)C3)CC1` (stereo partly drawn) [Example 374, 1-(4-(3-chloro-2-methylphenyl)piperazin-1-yl)-2-(5-fluoro-3-((3R,4S)-3-fluoro-4-hydroxypiperidine-1-carbonyl)-4,5,6,7-tetrahydro-1H-indazol-1-yl)ethan-1-one]: the IC50 is 5.17 nM.

In the case of `Cc1c(Cl)cccc1N1CCN(C(=O)Cn2nc(C(=O)N3CC[C@@H](O)[C@@H](F)C3)c3c2CCC(F)C3)CC1` (stereo partly drawn) [Example 375, 1-(4-(3-chloro-2-methylphenyl)piperazin-1-yl)-2-(5-fluoro-3-((3S,4R)-3-fluoro-4-hydroxypiperidine-1-carbonyl)-4,5,6,7-tetrahydro-1H-indazol-1-yl)ethan-1-one], the IC50 was 9.03 nM.

Take `Cc1c(Cl)cccc1N1CCN(C(=O)Cn2nc(C(=O)N3CCN(C(=O)CO)CC3)c3c2CCC(F)C3)CC1` (stereo not shown) [Example 376, 1-(4-(3-chloro-2-methylphenyl)piperazin-1-yl)-2-(5-fluoro-3-(4-(2-hydroxyacetyl)piperazine-1-carbonyl)-4,5,6,7-tetrahydro-1H-indazol-1-yl)ethan-1-one]: the IC50 came out at 14 nM.

As to `CC(=O)NC1CCN(C(=O)c2nn(CC(=O)N3CCN(c4cccc(Cl)c4C)CC3)c3c2CC(F)CC3)CC1` (stereo not shown) [Example 377, N-(1-(1-(2-(4-(3-chloro-2-methylphenyl)piperazin-1-yl)-2-oxoethyl)-5-fluoro-4,5,6,7-tetrahydro-1H-indazol-3-carbonyl)piperidin-4-yl)acetamide], the IC50 was determined as 3.15 nM.

As to `Cc1c(Cl)cccc1N1CCN(C(=O)Cn2nc(C(=O)N3CC[C@@H](O)[C@@H](F)C3)c3c2CCC(F)(F)C3)CC1` [Example 378, 1-(4-(3-chloro-2-methylphenyl)piperazin-1-yl)-2-(5,5-difluoro-3-((3 S,4R)-3-fluoro-4-hydroxypiperidine-1-carbonyl)-4,5,6,7-tetrahydro-1H-indazol-1-yl)ethan-1-one], the concentration for half-maximal inhibition (IC50) stood at 9.25 nM.

Regarding `Cc1c(Cl)cccc1N1CCN(C(=O)Cn2nc(C(=O)N3CCN(C)C(C)C3)c3c2CCC(F)(F)C3)CC1` (stereo not shown) [Example 382], the IC50 amounted to 11.6 nM.

Turning to `Cc1c(Cl)cccc1N1CCN(C(=O)Cn2nc(C(=O)N3CCC(O)(CF)CC3)c3c2CCC(F)(F)C3)CC1` [Example 383, 1-(4-(3-chloro-2-methylphenyl)piperazin-1-yl)-2-(5,5-difluoro-3-(4-(fluoromethyl)-4-hydroxypiperidine-1-carbonyl)-4,5,6,7-tetrahydro-1H-indazol-1-yl)ethan-1-one], the IC50 turned out to be 4.49 nM.

With `Cc1cccc(N2CCN(C(=O)Cn3nc(C(=O)N4CCC(O)CC4)c4c3C[C@H]3C[C@@H]43)C(C(F)F)C2)c1C` (stereo partly drawn) [Example 385, 1-(2-(difluoromethyl)-4-(2,3-dimethylphenyl)piperazin-1-yl)-2-((3bR,4aR)-3-(4-hydroxypiperidine-1-carbonyl)-3b,4,4a,5-tetrahydro-1H-cyclopropa[3,4]cyclopenta[1,2-c]pyrazol-1-yl)ethanone], the IC50 was determined as 34.9 nM.

On to `Cc1cccc(N2CCN(C(=O)Cn3nc(C(=O)N4CCN(C(=O)CO)CC4)c4c3C[C@H]3C[C@@H]43)C(C(F)F)C2)c1C` (stereo partly shown) [Example 388], for which the IC50 came to 92.6 nM.

As for `Cc1cccc(N2CCN(C(=O)Cn3nc(C(=O)N4CCN(C(=O)CO)CC4)c4c3C[C@H]3C[C@@H]43)C(C(F)F)C2)c1C` (stereo partly shown) [Example 389], the 50% inhibitory concentration (IC50) worked out at 47.6 nM.

On to `Cc1cccc(N2CCN(C(=O)Cn3nc(C(=O)N4CCN(C(=O)CO)CC4)c4c3C[C@H]3C[C@@H]43)C(C(F)F)C2)c1C` (stereo partly shown) [Example 390], for which the IC50 was found to be 226 nM.

In the case of `Cc1cccc(N2CCN(C(=O)Cn3nc(C(=O)N4CCN(C(=O)[C@H](C)O)CC4)c4c3CCC4)CC2)c1C` [Example 397, (S)-1-(4-(1-(2-(4-(2,3-dimethylphenyl)piperazin-1-yl)-2-oxoethyl)-1,4,5,6-tetrahydrocyclopenta[c]pyrazole-3-carbonyl)piperazin-1-yl)-2-hydroxypropan-1-one], the IC50 came out at 22.4 nM.

For the molecule `Cc1cccc(N2CCN(C(=O)Cn3nc(C(=O)N4CCN(C(=O)CN)CC4)c4c3CCC4)CC2)c1C` [Example 398, 2-amino-1-(4-(1-(2-(4-(2,3-dimethylphenyl)piperazin-1-yl)-2-oxoethyl)-1,4,5,6-tetrahydrocyclopenta[c]pyrazole-3-carbonyl)piperazin-1-yl)ethanone], the IC50 worked out at 258 nM.

Take `COCC(=O)N1CCN(C(=O)c2nn(CC(=O)N3CCN(c4cccc(C)c4C)CC3)c3c2CCC3)CC1` [Example 399, 1-(4-(2,3-dimethylphenyl)piperazin-1-yl)-2-(3-(4-(2-methoxyacetyl)piperazine-1-carbonyl)-5,6-dihydrocyclopenta[c]pyrazol-1(4H)-yl)ethanone]: the 50% inhibitory concentration (IC50) was 22.4 nM.

Turning to `Cc1cccc(N2CCN(C(=O)Cn3nc(C(=O)N4CCN(C(=O)CO)[C@H](C)C4)c4c3CCC4)CC2)c1C` [Example 400, (R)-1-(4-(2,3-dimethylphenyl)piperazin-1-yl)-2-(3-(4-(2-hydroxyacetyl)-3-methylpiperazine-1-carbonyl)-5,6-dihydrocyclopenta[c]pyrazol-1(4H)-yl)ethanone], the IC50 stood at 25.6 nM.

As to `Cc1cccc(N2CCN(C(=O)Cn3nc(C(=O)N4CCN(C(=O)CO)C[C@@H]4C)c4c3CCC4)CC2)c1C` [Example 401, (S)-1-(4-(2,3-dimethylphenyl)piperazin-1-yl)-2-(3-(4-(2-hydroxyacetyl)-2-methylpiperazine-1-carbonyl)-5,6-dihydrocyclopenta[c]pyrazol-1(4H)-yl)ethanone], the IC50 amounted to 12.9 nM.

For the molecule `Cc1cccc(N2CCN(C(=O)Cn3nc(C(=O)N4CCN(C(=O)CO)C[C@H]4C)c4c3CCC4)CC2)c1C` [Example 402, (R)-1-(4-(2,3-dimethylphenyl)piperazin-1-yl)-2-(3-(4-(2-hydroxyacetyl)-2-methylpiperazine-1-carbonyl)-5,6-dihydrocyclopenta[c]pyrazol-1(4H)-yl)ethanone], the IC50 was 3.58 nM.
